Assay results from patent US8173705B2, “Agent for alleviating wrinkles” (Shiseido Company Ltd., priority 2007, dated 2012).

System: SCCA 1 (Serpin b3) expression
Test: Effect of suppressing SCCA 1 expression (RT-PCR in human normal keratinocytes)
Assay type: cell-based
Details: incubated 24 hours, G3PDH internal standard, compared with control sample
Protocol: Human normal keratinocytes (manufactured by KURABO INDUSTRIES LTD.) were incubated with culture medium, Epilife (manufactured by KURABO INDUSTRIES LTD.) For medium replacement, the medium was subcultured for three times a week. The human normal keratinocytes were seeded on 3.5 cm dishes. In the phase of 60 to 70% confluent, 200 μM and 1 mM of N-benzenesulfonyl-gamma-aminobutyric were respectively added to the dishes, which were incubated for 24 hours. Then RNAs were extracted with use of Isogen, and SCCA 1 (Serpin b3) expression levels were measured by RT-PCR. Additionally, as a control sample, the same test except no addition of gamma-aminobutyric acid derivatives was conducted. G3PDH was used as internal standard. The primers used for PCR were as follows.

## O=C(O)CCCNS(=O)(=O)c1ccccc1 [N-benzenesulfonyl-gamma-aminobutyric acid]
200 μM added
  Serpin b3 (SCCA 1) expression level: significantly decreased
1 mM added
  Serpin b3 (SCCA 1) expression level: significantly decreased
